Data reported in EP3345917A1, “ANTIPROTOZOAL COMPOUNDS” (Bacoba AG, priority 2017, dated 2018).
pIC50: −log10 of the molar value. Non-standard residues stand in square brackets, D forms with d. Residues, ends and D or L forms follow the SMILES beside them. *: point of attachment. NH((S)CH(Me)CH2NMe2) = C[C@@H](CN(C)C)N*; NH(1-CH2NMe2-cBu) = CN(C)CC1(N*)CCC1; Gly(octyl) = CCCCCCCC[C@H](N)C(=O)O; Oxazole4CO(2-Me) = Cc1nc(C(=O)*)co1; X16 = COc1ccc2cc(C(=O)*)c(=O)oc2c1; Hexanoyl = CCCCCC(=O)*; X18 = CN1CCN(CCN*)CC1; Aib = CC(C)(N)C(=O)O; X14 = O=C(c1cocn1)*; βAla = NCCC(=O)O; NHcPr = C1CC1N*

Experiments:
[1] = tested on: Trypanosoma brucei rhodesiense (STIB 900 strain); test: Alamar Blue assay against Trypanosoma brucei rhodesiense grown in axenic medium; assay type: cell-based; conditions: In vitro inhibition, read-out: T.b.rhod.
Experimental: (§1) Tests were done in triplicate.
Trypanosoma brucei rhodesiense (STIB 900) were grown in axenic medium as described by Baltz et al. (1985) The samples were tested using the Alamar Blue assay protocol (Baltz T et al. EMBO J 1985; 4:1273-1277) to determine the 50% inhibitory concentration (IC50). […] Melarsoprol (Arsobal®, Sanofi-Aventis, Switzerland) was used as a reference drug (IC50= 0.03 ± 0.01 µM). Its purity was over 95 %, as was certified by the supplier. The IC50 values were calculated by using Softmax Pro software (Molecular Devices Cooperation, Sunnyvale, CA).

[2] = tested on: Trypanosoma cruzi trypomastigote forms (Tulahuen strain); test: Intracellular Trypanosoma cruzi assay in L6-cells, beta-galactosidase/CPRG readout; assay type: cell-based; conditions: In vitro inhibition, read-out: T.cruzi.
Experimental: as §1
Trypanosoma cruzi trypomastigote forms (Tulahuen strain C2C4 containing β-galactosidase (Lac Z) gene) were cultured as described by Buckner et al. (Buckner FS et al. Antimicrob Agents Ch1996; 40: 2592-2597) in rat myoblast cells (L6-cells). […] After incubation, the substrate chlorophenyl red β-D-galactopyranoside agent CPRG/Nonident was added to all wells and a color change was developed within 2 to 6 h. The plates were read photometrically at 540 nm (Molecular Devices). Data were evaluated and IC50 values calculated using Softmax Pro software (Molecular Devices).

[3] = tested on: Axenically grown Leishmania donovani amastigotes (strain MHOM/ET/67/L82); test: Axenic Leishmania donovani amastigote resazurin assay; assay type: cell-based; conditions: In vitro inhibition, read-out: L.don. ax
Experimental: as §1
Axenically grown Leishmania donovani amastigotes (strain MHOM/ET/67/L82) were grown and tests were done as previously described using the resazurin assay (Räz B et al. Acta Tropica 1997, 68:139-147). The plates were developed for 2-4 hours and read on a Spectramax Gemini XS micro plate fluorometer (Molecular Devices Cooperation) using an excitation wavelength of 536 nm and emission wavelength of 588 nm. Fluorescence development was measured and expressed as percentage of the negative control. […] Data were transferred to the graphic programme Softmax Pro (Molecular Devices), with which IC50 values were calculated.

[4] = tested on: Plasmodium falciparum; test: 3H-hypoxanthine incorporation assay against Plasmodium falciparum; assay type: cell-based; conditions: In vitro inhibition, read-out: P.falc NF5
Experimental: as §1
IC50 values were calculated by linear interpolation.

[5] = Cytotoxicity assay on L6-cells (Alamar Blue); conditions: rat, Cytotox L6, Cytotoxicity against rat myoblast cells (L6)
Experimental: Tests were done in triplicate. IC50 values against the parasites as well as cytotoxic effects against rat myoblast (L6-cells) were determined by serial dilution and repeated twice.
After 68 h of incubation under humidified 5% CO2 atmosphere, 10 µl of the Alamar blue marker was added to all wells. The plates were incubated for an additional 2 h. […] The IC50S were calculated by Softmax Pro software (Molecular Devices Cooperation, Sunnyvale, CA). […] Cytotoxicity was measured against rat myoblast cells (Cytotox L6).

SMILES | pIC50 [1] | pIC50 [2] | pIC50 [3] | pIC50 [4] | IC50 at 70 h [5]
CCCCCCCC[C@H](NC(=O)[C@H](C)NC(=O)CCCCC)C(=O)N[C@H](C(=O)NC(C)(C)C(=O)N[C@@H](CC(C)C)C(=O)N[C@@H](CC(C)C)C(=O)NC(C)(C)C(=O)NC(C)(C)C(=O)NCCC(=O)N[C@@H](C)CN(C)C)[C@@H](C)O [Compound 5605, (2S)-N-[(1S,2R)-1-[(1-{[(1S)-1-{[(1S)-1-{[1-({1-[(2-{[(2S)-1-(dimethylamino)propan-2-yl]carbamoyl}ethyl)carbamoyl]-1-methylethyl}carbamoyl)-1-methylethyl]carbamoyl}-3-methylbutyl]carbamoyl}-3-methylbutyl]carbamoyl}-1-methylethyl)carbamoyl]-2-hydroxypropyl]-2-[(2S)-2-hexanamidopropanamido]decanamide] (Hexanoyl-A[Gly(octyl)]T[Aib]LL[Aib][Aib][βAla]-{NH((S)CH(Me)CH2NMe2)}) | 7.64 | 5.74 | 7.10 | 7.41 | 2480 nM
CCCCCCCC[C@H](NC(=O)c1cocn1)C(=O)N[C@H](C(=O)NC(C)(C)C(=O)N[C@@H](CC(C)C)C(=O)N[C@@H](CC(C)C)C(=O)NC(C)(C)C(=O)NC(C)(C)C(=O)NCCC(=O)N[C@@H](C)CN(C)C)[C@@H](C)O [Compound 5639, (2S)-N-[(1S,2R)-1-[(1-{[(1S)-1-{[(1S)-1-{[1-({1-[(2-{[(2S)-1-(dimethylamino)propan-2-yl]carbamoyl}ethyl)carbamoyl]-1-methylethyl}carbamoyl)-1-methylethyl]carbamoyl}-3-methylbutyl]carbamoyl}-3-methylbutyl]carbamoyl}-1-methylethyl)carbamoyl]-2-hydroxypropyl]-2-[(1,3-oxazol-4-yl)formamido]decanamide] (X14-[Gly(octyl)]T[Aib]LL[Aib][Aib][βAla]-{NH((S)CH(Me)CH2NMe2)}) | 7.65 | 5.27 | 6.27 | 6.61 | 1640 nM
CCCCCCCC[C@H](NC(=O)c1coc(C)n1)C(=O)N[C@H](C(=O)NC(C)(C)C(=O)N[C@@H](CC(C)C)C(=O)N[C@@H](CC(C)C)C(=O)NC(C)(C)C(=O)NC(C)(C)C(=O)NCCC(=O)N[C@@H](C)CN(C)C)[C@@H](C)O [Compound 5640, (2S)-N-[(1S,2R)-1-[(1-{[(1S)-1-{[(1S)-1-{[1-({1-[(2-{[(2S)-1-(dimethylamino)propan-2-yl]carbamoyl}ethyl)carbamoyl]-1-methylethyl}carbamoyl)-1-methylethyl]carbamoyl}-3-methylbutyl]carbamoyl}-3-methylbutyl]carbamoyl}-1-methylethyl)carbamoyl]-2-hydroxypropyl]-2-[(2-methyl-1,3-oxazol-4-yl)formamido]decanamide] ({Oxazole4CO(2-Me)}-[Gly(octyl)]T[Aib]LL[Aib][Aib][βAla]-{NH((S)CH(Me)CH2NMe2)}) | 8.28 | 5.43 | 6.71 | 7.07 | 4440 nM
CCCCCCCC[C@H](NC(=O)[C@@H]1CCCN1C(=O)CCCCC)C(=O)N[C@@H](CC(C)C)C(=O)NC(C)(C)C(=O)N[C@@H](CC(C)C)C(=O)N[C@@H](CC(C)C)C(=O)NC(C)(C)C(=O)NC(C)(C)C(=O)NCCC(=O)NC1CC1 [Compound 5645, (2S)-N-[(1S)-1-[(1-{[(1S)-1-{[(1S)-1-({1-[(1-{[2-(cyclopropylcarbamoyl)ethyl]carbamoyl}-1-methylethyl)carbamoyl]-1-methylethyl}carbamoyl)-3-methylbutyl]carbamoyl}-3-methylbutyl]carbamoyl}-1-methylethyl)carbamoyl]-3-methylbutyl]-2-{[(2S)-1-hexanoylpyrrolidin-2-yl]formamido}decanamide] (Hexanoyl-P[Gly(octyl)]L[Aib]LL[Aib][Aib][βAla]-NHcPr) | 6.27 | 5.37 | 6.78 | 7.86 | 1230 nM
CCCCCC(=O)N1CCC[C@H]1C(=O)N[C@@H](CCCCNC(C)=O)C(=O)N[C@@H](CC(C)C)C(=O)NC(C)(C)C(=O)N[C@@H](CC(C)C)C(=O)N[C@@H](CC(C)C)C(=O)NC(C)(C)C(=O)NC(C)(C)C(=O)NCCC(=O)N[C@@H](C)CN(C)C [Compound 5766, (2S)-N-[(1S)-1-[(1-{[(1S)-1-{[(1S)-1-{[1-({1-[(2-{[(2S)-1-(dimethylamino)propan-2-yl]carbamoyl}ethyl)carbamoyl]-1-methylethyl}carbamoyl)-1-methylethyl]carbamoyl}-3-methylbutyl]carbamoyl}-3-methylbutyl]carbamoyl}-1-methylethyl)carbamoyl]-3-methylbutyl]-6-acetamido-2-{[(2S)-1-hexanoylpyrrolidin-2-yl]formamido}hexanamide] (Hexanoyl-PK(Ac)L[Aib]LL[Aib][Aib][βAla]-{NH((S)CH(Me)CH2NMe2)}) | 8.52 | 5.42 | 6.12 | 6.87 | 4870 nM
CCCCCC(=O)N1CCC[C@H]1C(=O)N[C@@H](CCCCNC(=O)c1cc2ccc(OC)cc2oc1=O)C(=O)N[C@@H](CC(C)C)C(=O)NC(C)(C)C(=O)N[C@@H](CC(C)C)C(=O)N[C@@H](CC(C)C)C(=O)NC(C)(C)C(=O)NC(C)(C)C(=O)NCCC(=O)N[C@@H](C)CN(C)C [Compound 5767, (2S)-N-[(1S)-1-[(1-{[(1S)-1-{[(1S)-1-{[1-({1-[(2-{[(2S)-1-(dimethylamino)propan-2-yl]carbamoyl}ethyl)carbamoyl]-1-methylethyl}carbamoyl)-1-methylethyl]carbamoyl}-3-methylbutyl]carbamoyl}-3-methylbutyl]carbamoyl}-1-methylethyl)carbamoyl]-3-methylbutyl]-2-{[(2S)-1-hexanoylpyrrolidin-2-yl]formamido}-6-[(7-methoxy-2-oxo-2H-chromen-3-yl)formamido]hexanamide] (Hexanoyl-PK(X16)L[Aib]LL[Aib][Aib][βAla]-{NH((S)CH(Me)CH2NMe2)}) | 8.46 | 6.94 | 7.75 | 7.67 | 508 nM
CCCCCCCC[C@H](NC(=O)[C@@H]1CCCN1C(=O)CCCCC)C(=O)N[C@@H](CC(C)C)C(=O)NC(C)(C)C(=O)N[C@@H](CC(C)C)C(=O)N[C@@H](CC(C)C)C(=O)NC(C)(C)C(=O)NC(C)(C)C(=O)NCCC(=O)NC1(CN(C)C)CCC1 [Compound 5882, (2S)-N-[(1S)-1-[(1-{[(1S)-1-{[(1S)-1-({1-[(1-{[2-({1-[(dimethylamino)methyl]cyclobutyl}carbamoyl)ethyl]carbamoyl}-1-methylethyl)carbamoyl]-1-methylethyl}carbamoyl)-3-methylbutyl]carbamoyl}-3-methylbutyl]carbamoyl}-1-methylethyl)carbamoyl]-3-methylbutyl]-2-{[(2S)-1-hexanoylpyrrolidin-2-yl]formamido}decanamide] (Hexanoyl-P[Gly(octyl)]L[Aib]LL[Aib][Aib][βAla]-{NH(1-CH2NMe2-cBu)}) | 4.69 | 4.37 | 4.33 | 9.05 | 44.1 nM
CCCCCCCC[C@H](NC(=O)[C@@H]1CCCN1C(=O)CCCCC)C(=O)N[C@@H](CC(C)C)C(=O)NC(C)(C)C(=O)N[C@@H](CC(C)C)C(=O)N[C@@H](CC(C)C)C(=O)NC(C)(C)C(=O)NC(C)(C)C(=O)NCCC(=O)NCCN1CCN(C)CC1 [Compound 5884, (2S)-2-{[(2S)-1-hexanoylpyrrolidin-2-yl]formamido}-N-[(1S)-3-methyl-1-[(1-methyl-1-{[(1S)-3-methyl-1-{[(1S)-3-methyl-1-{[1-methyl-1-({1-methyl-1-[(2-{[2-(4-methylpiperazin-1-yl)ethyl]carbamoyl}ethyl)carbamoyl]ethyl}carbamoyl)ethyl]carbamoyl}butyl]carbamoyl}butyl]carbamoyl}ethyl)carbamoyl]butyl]decanamide] (Hexanoyl-P[Gly(octyl)]L[Aib]LL[Aib][Aib][βAla]-X18) | 9.22 | 4.37 | 4.71 | 4.82 | 128 nM
